Experimental data reported in patent US12661410B2, “Compounds for targeted degradation of RET” (C4 Therapeutics, Inc., priority 2020, dated 2026).
Residue numbers refer to the chain shown, from its start. Like-named read-outs stand apart in the source and are kept apart here.

Legend:
[1] = biological target: T1, RET (658-1114) (Homo sapiens, UniProt P07949); assay: HiBiT-Degradation, RET wild-type degradation assay (Nano-Glo HiBiT Lytic), 293T.144 cells; type: cell-based; conditions: for DC50 / Emax: 6.0 hours; for DC50: read-out: 293T.144 RET (658-1114) 6.0 hours (DC50); for Emax: read-out: 293T.144 RET (658-1114) 6.0 hours (Emax)
T1 construct: 658-1114; expressed in transfected cells; host or cells: 293T.144 (293T cells, generated in-house)
T1 sequence (P07949 658-1114): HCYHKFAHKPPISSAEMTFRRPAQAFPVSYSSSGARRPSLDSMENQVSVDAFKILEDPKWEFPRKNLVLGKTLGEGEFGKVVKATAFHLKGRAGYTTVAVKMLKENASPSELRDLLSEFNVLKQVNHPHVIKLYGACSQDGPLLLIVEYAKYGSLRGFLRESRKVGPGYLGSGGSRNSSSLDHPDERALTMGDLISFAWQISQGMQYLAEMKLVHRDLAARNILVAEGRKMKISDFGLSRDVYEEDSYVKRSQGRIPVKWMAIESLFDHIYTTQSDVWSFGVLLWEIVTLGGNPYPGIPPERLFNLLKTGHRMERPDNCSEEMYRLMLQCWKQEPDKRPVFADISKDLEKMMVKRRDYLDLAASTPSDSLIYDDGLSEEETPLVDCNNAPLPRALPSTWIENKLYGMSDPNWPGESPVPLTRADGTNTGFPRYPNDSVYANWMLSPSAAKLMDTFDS
How it was run: (§1)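 6 h treatment, 293T.144 (WT) / 293T.165 (G810R) cells ectopically expressing HiBiT-fused RET KD; 11-pt half-log dilution, top 10 μM, n=2. Nano-Glo HiBiT lytic detection, luminescence. Output: DC50, Emax (% protein remaining).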

[2] = biological target: T2, RET(KD: 658-1114 G810R) (Homo sapiens, UniProt P07949, G810R); assay: HiBiT-Degradation, RET G810R degradation assay (Nano-Glo HiBiT Lytic), 293T.165 cells; type: cell-based; conditions: for Emax / DC50: 6.0 hours; for Emax: % remaining protein, read-out: 293T.165 RET(KD: 658-1114 G810R) 6.0 hours (Emax); for DC50: read-out: 293T.165 RET(KD: 658-1114 G810R) 6.0 hours (DC50)
T2 construct: 658-1114; expressed in transfected cells; host or cells: 293T.165 (293T cells, generated in-house)
T2 sequence (P07949 658-1114 G810R): T1 sequence (P07949 658-1114) with G153R
How it was run: as §1

[3] = half-maximal degradation concentration

Structure (SMILES) | 293T.144 RET (658-1114) 6.0 hours (IP) [nM] ([1]; HiBiT-Degradation) | DC50 ([1]; HiBiT-Degradation) | Emax ([1]; HiBiT-Degradation) | Emax [2] | DC50 [2, 3] | 293T.165 RET(KD: 658-1114 G810R) 6.0 hours (Emax) ([2]; HiBiT-Degradation) | 293T.165 RET(KD: 658-1114 G810R) 6.0 hours (IP) [nM] ([2]; HiBiT-Degradation) | DC50 ([2]; HiBiT-Degradation) | 293T.144 RET (658-1114) 6.0 hours (IP) [nM] [1] | Emax ([1]; % remaining protein) | DC50 [1, 3] | 293T.165 RET(KD: 658-1114 G810R) 6.0 hours (IP) [nM] [2]
CCC1(C(=O)NC(C)C)CCN(c2ccc(-c3nc(-c4cnn(C5CCN(C(=O)CC6(O)CCN(c7ccc(NC8CCC(=O)NC8=O)cc7F)CC6)CC5)c4)cn4ncc(C#N)c34)cn2)CC1 (centres unmarked) [Compound 30, 1-(5-(3-Cyano-6-(1-(1-(2-(1-(4-((2,6-dioxopiperidin-3-yl)amino)-2-fluorophenyl)-4-hydroxypiperidin-4-yl)acetyl)piperidin-4-yl)-1H-pyrazol-4-yl)pyrazolo[1,5-a]pyrazin-4-yl)pyridin-2-yl)-4-ethyl-N-isopropylpiperidine-4-carboxamide] | ++++ (< 50 nM = ++++) | < 50 nM | < 30% | < 50% | < 50 nM | +++ (<50% = +++) | ++++ (< 50 nM = ++++) | < 50 nM |  |  |  | 
N#Cc1cnn2cc(-c3cnn([C@H]4CC[C@@H](N5CCN(c6ccc(N[C@@H]7CCC(=O)NC7=O)cc6F)CC5)CC4)c3)nc(-c3ccc(N4CC5CC(C4)N5C(=O)c4c(F)cccc4F)nc3)c12 (single isomer, unassigned) [Compound 172] |  |  |  | < 30% | < 50 nM |  |  |  | ++++ (<50 nM = ++++) | < 30% | < 50 nM | ++++ (<50 nM = ++++)
CC(C)NC(=O)C1(C)CCN(c2ccc(-c3cc(-c4cnn(C5CCC6(CC5)CN(C(=O)CN5CCC(c7ccc(NC8CCC(=O)NC8=O)cc7)CC5)C6)c4)cn4ncc(C#N)c34)cn2)CC1 (centres unmarked) [Compound 196, 1-(5-(3-cyano-6-(1-(2-(2-(4-(4-((2,6-dioxopiperidin-3-yl)amino)phenyl)piperidin-1-yl)acetyl)-2-azaspiro[3.5]nonan-7-yl)-1H-pyrazol-4-yl)pyrazolo[1,5-a]pyridin-4-yl)pyridin-2-yl)-N-isopropyl-4-methylpiperidine-4-carboxamide] |  |  |  | < 30% | < 100 nM |  |  |  | ++++ (<50 nM = ++++) | < 30% | < 50 nM | ++++ (<50 nM = ++++)
CCC1(C(=O)NC(C)C)CCN(c2ccc(-c3nc(-c4cnn(C5CCN(C(=O)CN6CCC(c7ccc(NC8CCC(=O)NC8=O)cc7F)CC6)CC5)c4)cn4ncc(C#N)c34)cn2)CC1 (centres unmarked) [Compound 53, 1-[5-[3-cyano-6-[1-[1-[2-[4-[4-[(2,6-dioxo-3-piperidyl)amino]-2-fluoro-phenyl]-1-piperidyl]acetyl]-4-piperidyl]pyrazol-4-yl]pyrazolo[1,5-a]pyrazin-4-yl]-2-pyridyl]-4-ethyl-N-isopropyl-piperidine-4-carboxamide] | ++++ (< 50 nM = ++++) | < 50 nM | < 30% | < 50% | < 50 nM | +++ (<50% = +++) | ++++ (< 50 nM = ++++) | < 50 nM |  |  |  | 
COc1cc(N2CCN([C@H]3CC[C@H](n4cc(-c5cn6ncc(C#N)c6c(-c6ccc(N7C[C@@H]8[C@@H](CNC(=O)c9ncccc9Cl)[C@@H]8C7)nc6)n5)cn4)CC3)CC2)c(F)cc1NC1CCC(=O)NC1=O (stereo partly drawn) [Compound 168, 3-chloro-N-[[(1S,5R)-3-[5-[3-cyano-6-[1-[4-[4-[4-[(2,6-dioxo-3-piperidyl)amino]-2-fluoro-5-methoxy-phenyl]piperazin-1-yl]cyclohexyl]pyrazol-4-yl]pyrazolo[1,5-a]pyrazin-4-yl]-2-pyridyl]-3-azabicyclo[3.1.0]hexan-6-yl]methyl]pyridine-2-carboxamide] |  |  |  | < 30% | < 100 nM |  |  |  | ++++ (<50 nM = ++++) | < 30% | < 50 nM | ++++ (<50 nM = ++++)
CC1(NC(=O)Cc2ccccc2)CCN(c2ccc(-c3cc(-c4ccc(N5CCN(C(=O)CN6CCC(c7ccc(NC8CCC(=O)NC8=O)cc7F)CC6)CC5)cc4)cn4ncc(C#N)c34)cn2)CC1 (centres unmarked) [Compound 23, N-(1-(5-(3-Cyano-6-(4-(4-(2-(4-(4-((2,6-dioxopiperidin-3-yl)amino)-2-fluorophenyl)piperidin-1-yl)acetyl)piperazin-1-yl)phenyl)pyrazolo[1,5-a]pyridin-4-yl)pyridin-2-yl)-4-methylpiperidin-4-yl)-2-phenylacetamide] | ++++ (< 50 nM = ++++) | < 50 nM | < 30% | < 30% | < 100 nM | ++++ (< 30% = ++++) | +++ (<100 nM = +++) | < 100 nM |  |  |  | 
CCC1(C(=O)NC2CCC2)CCN(c2ccc(-c3nc(-c4cnn([C@H]5CC[C@H](N6CCN(c7cc(OC)c(N[C@H]8CCC(=O)NC8=O)cc7F)CC6)CC5)c4)cn4ncc(C#N)c34)cn2)CC1 (single isomer, unassigned) [Compound 134] |  |  |  | < 30% | < 50 nM |  |  |  | ++++ (<50 nM = ++++) | < 30% | < 50 nM | ++++ (<50 nM = ++++)
CCC1(C(=O)NC(C)C)CCN(c2ccc(-c3nc(-c4cnn(C5CCN(C(=O)CC6(O)CCN(c7ccc(NC8CCC(=O)NC8=O)cc7Cl)CC6)CC5)c4)cn4ncc(C#N)c34)cn2)CC1 (centres unmarked) [Compound 14, 1-(5-(6-(1-(1-(2-(1-(2-Chloro-4-((2,6-dioxopiperidin-3-yl)amino)phenyl)-4-hydroxypiperidin-4-yl)acetyl)piperidin-4-yl)-1H-pyrazol-4-yl)-3-cyanopyrazolo[1,5-a]pyrazin-4-yl)pyridin-2-yl)-4-ethyl-N-isopropylpiperidine-4-carboxamide] | ++++ (< 50 nM = ++++) | < 50 nM | < 30% | < 30% | < 50 nM | ++++ (< 30% = ++++) | ++++ (< 50 nM = ++++) | < 50 nM |  |  |  | 
CCC1(C(=O)NC2CCOCC2)CCN(c2ccc(-c3nc(-c4cnn([C@H]5CC[C@H](N6CCC(c7ccc(N[C@H]8CCC(=O)NC8=O)cc7F)CC6)CC5)c4)cn4ncc(C#N)c34)cn2)CC1 (stereo in doubt) [Compound 144, 1-(5-(3-cyano-6-(1-((1S,4r)-4-(4-(4-(((S)-2,6-dioxopiperidin-3-yl)amino)-2-fluorophenyl)piperidin-1-yl)cyclohexyl)-1H-pyrazol-4-yl)pyrazolo[1,5-a]pyrazin-4-yl)pyridin-2-yl)-4-ethyl-N-(tetrahydro-2H-pyran-4-yl)piperidine-4-carboxamide] |  |  |  | < 30% | < 50 nM |  |  |  | ++++ (<50 nM = ++++) | < 30% | < 50 nM | ++++ (<50 nM = ++++)
CCC1(C(=O)NC(C)(C)C)CCN(c2ccc(-c3nc(-c4cnn([C@H]5CC[C@H](N6CCN(c7c(F)cc(N[C@@H]8CCC(=O)NC8=O)cc7F)CC6)CC5)c4)cn4ncc(C#N)c34)cn2)CC1 (racemic) [Compound 219, N-tert-butyl-1-[5-[3-cyano-6-[1-[4-[4-[2,6-difluoro-4-[[rac-(3R)-2,6-dioxo-3-piperidyl]amino]phenyl]piperazin-1-yl]cyclohexyl]pyrazol-4-yl]pyrazolo[1,5-a]pyrazin-4-yl]-2-pyridyl]-4-ethyl-piperidine-4-carboxamide] |  |  |  | < 30% | < 50 nM |  |  |  | ++++ (<50 nM = ++++) | < 30% | < 50 nM | +++ (<100 nM = +++)
